The values that follow come from paper PMC7059199, “Identification and structural insight of an effective PPARγ modulator with improved therapeutic index for anti-diabetic drug discovery” (Chemical Science, 2020).

Usually IC50 stands for the concentration at which inhibition is half-maximal. A word on the Ki: it is a measure of affinity in units of concentration, obtained from inhibition or displacement. Higher therefore signals weaker binding.

Series [1] deals with 3T3-L1 cells. As to the kind of experiment: 3T3-L1 adipocyte differentiation assay (Oil Red O staining). It is filed as cell-based, mouse. To be noted: Rosi 10 μM; 2 days. Here is the method:
One of the best documented side-effects of the PPARγ agonist drugs is weight gain as PPARγ is the key activator of adipogenesis. To determine whether VSP-77 promotes adipogenesis, we treated mouse fibroblast 3T3-L1 cells with 100 μM of VSP-77. […] Cells were incubated with Oil Red O, which stains adipocytes red.
Fig. 6 3T3-L1 adipocyte differentiation assay. Oil Red O staining of 3T3-L1 fibroblast cells after differentiating with different ligands for 2 days. […]
Adipocyte differentiation assay
The adipocyte differentiation assay was performed with NIH 3T3-L1 preadipocytes obtained from ATCC. The 3T3-L1 preadipocytes were maintained in DMEM containing 10% FBS and antibiotics. For differentiation DMI (Dexamethazone 1 μM, 3-isobutyl-1-methyxanthine (IBMX) 0.5 mM and Insulin167 nM) and 10 μM of rosiglitazone were used as positive controls for the assay. VSP-77 was used at a 100 μM concentration. All the treatments have insulin at 167 nM concentration. Media with DMSO was used as a negative control. Differentiation was induced by treating post-confluent cultures with media containing the respective ligands for two days.
Cells were stained with Oil Red O to estimate the lipid accumulation. The images were analyzed using ImageJ (National Institutes of Health). […]

Series [2] concerns the target hERG potassium ion channel (Homo sapiens, UniProt Q12809). The arrangement: method as in PMID 23054723. To be noted: read-out: hERG inhibition IC50; cited from earlier work. (The hERG channel carries a current that helps repolarise heart muscle cells.)
Series [3] deals with 3T3-L1 cells. As to the kind of experiment: qPCR of adipogenic genes in 3T3-L1 cells. It is filed as cell-based, mouse. The following applies: 7 days after treatment. The method, then: Encouraged by the above results and to further determine whether VSP-77 activates PPARγ in 3T3-L1 cells, we evaluated the ability of VSP-77 to stimulate PPARγ activity by measuring the mRNA levels of endogenous PPARγ-regulated downstream genes linked to adipogenesis (primers are listed in Table S1 ^†).
Fig. 7 Expression of adipogenic genes in 3T3-L1 cells was analyzed by quantitative PCR (qPCR). Relative mRNA levels of the adipocyte differentiation genes PPARγ, aP2, CD36, LPL, C/EBPα and Fasn. mRNA was extracted from differentiating cells 7 days after treatment (n = 3, error bars = SEM). […]
(average±standard deviation calculated from three separate experiments). […]
Cells were stained with Oil Red O to estimate the lipid accumulation. The images were analyzed using ImageJ (National Institutes of Health).
For real-time PCR analysis, 1-2 μg total RNA was reverse-transcribed using the SuperScript cDNA Reverse Transcription Kit (Invitrogen) with SYBR Green PCR Master Mix (Invitrogen) and gene specific primers (Table S1) using a Roche Light Cycler 480 machine. The relative expression of mRNA was determined after normalization to β-actin level using the ΔΔ-Ct method. […]

Another series has as its system HFD mice. Description: Anti-diabetic activity and side effects in HFD mice, 7 weeks. The following applies: for expression of Glut4 and Adiponectin in adipose tissue (mRNA) / expression of adipogenic genes PPARγ, AP2, CD36, LPL, C/EBPa and Fasn in adipose tissue (mRNA): (S)-VSP-77 5 mg/kg i.p.
Another series has as its target T1, PPARα (Homo sapiens, UniProt Q07869).
T1 sequence (Q07869 1-468): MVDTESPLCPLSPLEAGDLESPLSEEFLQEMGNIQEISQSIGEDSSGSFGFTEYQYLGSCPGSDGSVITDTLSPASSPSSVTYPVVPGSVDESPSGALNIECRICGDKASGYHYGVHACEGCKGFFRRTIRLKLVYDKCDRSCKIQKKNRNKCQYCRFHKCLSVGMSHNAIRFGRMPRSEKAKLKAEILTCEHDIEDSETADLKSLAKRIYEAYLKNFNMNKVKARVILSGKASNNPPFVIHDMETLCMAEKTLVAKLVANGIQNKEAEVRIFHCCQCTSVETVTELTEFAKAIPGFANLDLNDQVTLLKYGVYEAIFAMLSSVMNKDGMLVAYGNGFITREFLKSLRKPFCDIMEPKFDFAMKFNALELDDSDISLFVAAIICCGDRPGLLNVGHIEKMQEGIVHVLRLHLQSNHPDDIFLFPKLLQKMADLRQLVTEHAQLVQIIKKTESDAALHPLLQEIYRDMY
Description: Competitive TR-FRET assay, PPARα. To be noted: at 10 μM. On the technique in general: Time-resolved FRET reads energy transfer from a long-lived donor to a nearby acceptor.

In another series the target is T2, GST-PPARγ LBD (Homo sapiens, UniProt P37231).
T2 construct: 0.5 nM GST-PPARγ LBD was incubated with 5 nM Fluormone™; purchased Invitrogen
T2 sequence (P37231 238-503 limits assumed): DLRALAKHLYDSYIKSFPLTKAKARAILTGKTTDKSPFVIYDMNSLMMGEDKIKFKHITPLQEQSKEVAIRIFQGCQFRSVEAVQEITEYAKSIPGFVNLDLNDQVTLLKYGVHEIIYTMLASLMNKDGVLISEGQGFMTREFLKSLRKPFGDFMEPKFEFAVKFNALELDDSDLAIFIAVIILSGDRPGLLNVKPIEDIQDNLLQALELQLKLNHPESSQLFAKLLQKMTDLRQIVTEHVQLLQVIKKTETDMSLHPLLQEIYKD
Description: LanthaScreen TR-FRET competitive binding assay, PPARγ. To be noted: competition of Fluormone (5 nM); 0.5 nM GST-PPARγ LBD.

Chain of hERG potassium ion channel (Q12809 whole entry): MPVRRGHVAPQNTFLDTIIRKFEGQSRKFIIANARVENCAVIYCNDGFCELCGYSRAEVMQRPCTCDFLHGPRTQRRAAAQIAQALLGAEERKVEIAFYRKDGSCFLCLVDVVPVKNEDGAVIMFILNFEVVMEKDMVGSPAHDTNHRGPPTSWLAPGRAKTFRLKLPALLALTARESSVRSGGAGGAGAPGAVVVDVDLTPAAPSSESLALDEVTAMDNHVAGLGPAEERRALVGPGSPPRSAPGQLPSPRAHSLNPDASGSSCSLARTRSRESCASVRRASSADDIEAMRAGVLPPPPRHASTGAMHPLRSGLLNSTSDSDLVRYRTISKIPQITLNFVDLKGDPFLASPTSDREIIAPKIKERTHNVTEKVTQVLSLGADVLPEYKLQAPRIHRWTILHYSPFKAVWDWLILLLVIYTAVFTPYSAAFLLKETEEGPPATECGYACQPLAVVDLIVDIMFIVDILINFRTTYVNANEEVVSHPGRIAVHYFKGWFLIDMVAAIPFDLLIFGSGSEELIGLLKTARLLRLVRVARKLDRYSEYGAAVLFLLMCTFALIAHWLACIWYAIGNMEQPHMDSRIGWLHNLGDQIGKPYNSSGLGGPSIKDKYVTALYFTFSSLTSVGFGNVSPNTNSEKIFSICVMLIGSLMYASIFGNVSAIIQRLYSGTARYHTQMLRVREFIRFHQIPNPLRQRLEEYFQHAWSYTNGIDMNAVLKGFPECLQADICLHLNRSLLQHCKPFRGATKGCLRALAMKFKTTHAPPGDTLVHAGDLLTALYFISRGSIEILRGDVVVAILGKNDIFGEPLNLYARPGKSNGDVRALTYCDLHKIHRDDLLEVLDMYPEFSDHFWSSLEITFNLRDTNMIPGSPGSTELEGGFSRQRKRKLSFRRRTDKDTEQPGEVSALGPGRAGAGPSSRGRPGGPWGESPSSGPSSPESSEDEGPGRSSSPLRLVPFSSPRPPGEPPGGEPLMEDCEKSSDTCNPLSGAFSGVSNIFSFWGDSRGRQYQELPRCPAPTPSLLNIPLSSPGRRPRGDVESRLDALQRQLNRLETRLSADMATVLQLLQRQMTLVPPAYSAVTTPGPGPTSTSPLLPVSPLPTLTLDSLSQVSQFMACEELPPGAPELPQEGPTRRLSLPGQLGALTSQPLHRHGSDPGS
Description for GST-PPARγ LBD: LanthaScreen™ TR-FRET assay (Invitrogen) was used for measuring the binding affinities of the ligands. 0.5 nM GST-PPARγ LBD was incubated with 5 nM Fluormone™ and Terbium-coated GST antibody.
Competitive TR -FRET binding assay
The GST PPARγ -LBD was labeled with a terbium-linked antibody and a fluorescent small molecule pan-PPAR ligand (Fluormone™ Pan-PPAR Green, Invitrogen) was used as a tracer that is displaced from the ligand binding domain upon agonist binding.
Excitation of the terbium at 340 nm results in FRET to the fluorescent tracer, with
Tracer displacment results is a loss of FRET signal between the terbium label and the fluorescent tracer.
The inhibition constant (ki) for a competitor was calculated by applying the
Cheng-Prusoff equation as following:
the tracer, [tracer] is the concentration of Fluormone™ Pan-PPAR Green used in the
Description for HFD mice: HFD mice were injected with (S)- or (R)-VSP-77 for 7 weeks.
Laboratory Animal Co., Shanghai, China) were housed in a temperature-controlled
For chronic treatment, mice were fed high-fat diets (60% calories from fat; Research Diets, New Brunswick, NJ, USA) or standard diets ad libitum. At 14 weeks of age, mice were randomly assigned to
(5 mg/day/kg or 10 mg/kg/day), VSP-77 (5 mg/kg/day) and (S)- or (R)-VSP-77 (5 mg/kg/day) were intraperitoneally injected and INT131 (30 mg/kg/day) was orally treated. The glucose tolerance test (2 g/kg glucose i.p.) and determination of fasting blood glucose and insulin levels were performed after 6 h of starvation. At the end, the animals were anatomized and blood and tissues were collected for further

Regarding `CN(CCOc1ccc(CC2SC(=O)NC2=O)cc1)c1ccccn1` (centres unmarked) [Rosi, rosiglitazone, reference compound], the “% Area stained by Oil Red O” value in the series on 3T3-L1 cells [1] is 37%. In addition, the IC50 in series [2] was 18.8 µM. Also, the “expression of adipogenic genes PPARγ, aP2, CD36, LPL, C/EBPα and Fasn (mRNA)” value with 3T3-L1 cells [3] was “robustly induced”. Also, in the series with HFD mice ((S)-/(R)-VSP-77 5 mg/kg i.p., Rosi 10 mg/kg i.p.), the body weight gain result is on record as “observed”. In the series on HFD mice (Rosi 10 mg/kg i.p.), the “expression of Glut4 and Adiponectin in adipose tissue (mRNA)” value is on record as “increased”; the “expression of adipogenic genes PPARγ, AP2, CD36, LPL, C/EBPa and Fasn in adipose tissue (mRNA)” value is reported as “robustly stimulated”.
Turning to `CC(C)(Sc1ccc(CCN(CCCCC2CCCCC2)C(=O)NC2CCCCC2)cc1)C(=O)O` [GW7647, reference compound], at PPARα, the “binding capability for PPARα” value was around 100%.
In the case of `CCCCCCC[C@H](OCC(=O)O)c1ccc(Cl)cc1` [(S)-VSP-77], in the series with HFD mice (5 mg/kg i.p.), the “CDK5-mediated Ser-273 phosphorylation of PPARγ in white adipose tissue” value is reported as “effectively blocked”, the fasting glucose levels entry was “significant reduction”, the fasting insulin levels result was “significant reduction” and the fluid retention entry is listed as “does not promote”. In the series on HFD mice (Rosi 10 mg/kg i.p.), the “expression of Glut4 and Adiponectin in adipose tissue (mRNA)” value was “increased”; the “expression of adipogenic genes PPARγ, AP2, CD36, LPL, C/EBPa and Fasn in adipose tissue (mRNA)” value is “weakly induced”.
Take `CCCCCCCCCC(=O)O` [DA, decanoic acid, reference compound]: the affinity at GST-PPARγ LBD corresponds to a Ki of 50.5 µM.
